Drawing on patent US11298363B2, “Triazolobenzazepines as vasopressin V1a receptor antagonists” (RICHTER GEDEON NYRT., priority 2017, dated 2022), this text covers Ki for seven compounds.

The target in the assay is mouse vasopressin V1a receptor (Mus musculus, UniProt Q62463). Nature of the assay: Mouse vasopressin V1a receptor binding assay. Particulars: 1321N1 cell membranes; read-out: Ki (nM) on mV1a cell line. From the text: Mouse Vasopressin V1a Receptor Binding Assay Cells and Radioligand
Chain of mouse vasopressin V1a receptor (Q62463 whole entry): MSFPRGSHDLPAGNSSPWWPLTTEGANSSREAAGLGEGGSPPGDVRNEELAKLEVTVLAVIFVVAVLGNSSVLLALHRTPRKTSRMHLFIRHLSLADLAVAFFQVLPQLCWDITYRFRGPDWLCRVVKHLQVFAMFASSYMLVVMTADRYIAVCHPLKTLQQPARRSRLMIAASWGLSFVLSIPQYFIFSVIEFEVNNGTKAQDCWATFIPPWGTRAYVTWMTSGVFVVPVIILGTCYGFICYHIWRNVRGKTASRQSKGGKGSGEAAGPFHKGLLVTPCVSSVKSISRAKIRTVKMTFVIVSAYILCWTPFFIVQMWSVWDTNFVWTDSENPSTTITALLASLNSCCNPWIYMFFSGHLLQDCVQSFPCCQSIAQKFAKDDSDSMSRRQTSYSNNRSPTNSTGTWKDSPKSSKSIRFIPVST
The immortalized 1321N1 cell line (B9/1321N1 clone) constitutively and stably expressing Mouse vasopressin V1a receptor vasopressin (8-L-Arginine), [Phenylalanyl-3,4,5-^3H(N)] labelled compound (Perkin Elmer Life and Analytical Sciences) as radioligand were used to determine the affinity of the prepared compounds.
Membrane-preparation: Membrane preparation of immortalized 1321N1 cells expressing the propagated mouse Vasopressin V1a receptor was made according to Jarvis's method (Jarvis et al., J Pharmacol Exp Ther […], 310:407-16). Cells were suspended in preparative buffer (50 mM Tris, 1 mM EDTA, 0.1 mM PMSF) and homogenized with glass homogenizing potter. To separate the raw membrane fraction two consecutive centrifugation procedures (40,000 g for 25 minutes at 4° C.) were executed, then the membrane was taken into the preparatory buffer during a final washing step, it was divided into aliquots which were stored at −80° C. until the time of measurement.
The protein content of the prepared membrane was determined according to Lowry's method using standard dilution line of bovine serum albumin (BSA) (Lowry et al., J Biol Chem 1951, 193:265-75).
To determine the final affinity value, the results of at least two independent experiments were taken into account.
Non-specific binding values were determined in the presence of an unlabeled 1.2×10^−6 M (Arg^8)-vasopressin. Samples were incubated in a total volume of 0.33 ml for 60 minutes at 27° C. Membrane-bound and free ligands were separated by filtration through a 0.5% polyethyleneimine-impregnated UniFilter® GF/B™ After drying the filter plates, 40 μl Microscint-20 (Packard) scintillation cocktail was added to the samples. Finally, radioactivity was measured using MicroBeta^2 Microplate Counter (Perkin Elmer).
The radioligand clamping ability of a substance is determined in at least two independent experiments. Specific radioligand binding can be defined as the difference between total and non-specific binding in the presence of a saturation amount of the unlabeled ligand or different concentrations of the substance to be tested. The results are given as a percentage of inhibition of the specific binding achieved in the presence of the substance to be tested.
The IC50 data (i.e. the concentration of the unknown substance which displaces 50% of specific bound radioligand) is calculated from the concentration-displacement curve using the sigmoid fitting mathematical method y=(A1−A2)/(1+(x/x0)p)+A2 with Origin 7.5. software (OriginLab Corporation, Northampton, USA). During fitting, the asymptotes are not fixed. The Ki values (inhibition constant) are given with Cheng-Prusoff equation Ki=IC50/[1+(L/KD)] wherein [L] is the radioligand concentration used in the experiment and [KD] is the affinity of the radioactively labelled ligand for the given receptor. The KD is determined beforehand using the Scatchard curve.
Consider `N[C@@H]1Cc2cc(Cl)ccc2-n2c(nnc2[C@H]2CC[C@H](Oc3ccccn3)CC2)C1` [Example 8, (5R)-8-chloro-1-[trans-4-(pyridin-2-yloxy)cyclohexyl]-5,6-dihydro-4H-[1,2,4]triazolo[4,3-a][1]benzazepine-5-amine], for which the inhibitory constant (Ki) (usually a dissociation constant, usually derived from enzyme kinetics or from competition with a known ligand) amounted to 161 nM. In the case of `O=C1Cc2cc(Cl)ccc2-n2c(nnc2[C@H]2CC[C@H](Oc3ccccn3)CC2)C1` [Example 54, 8-chloro-1-[trans-4-(pyrin-2-yloxy)cyclohexyl]-4H-[1,2,4]triazolo[4,3-a][1]benzazepin-5(6H)-one] it was 43 nM; in that of `Brc1ccc2c(c1)CC1(Cc3nnc([C@H]4CC[C@H](Oc5ccccn5)CC4)n3-2)OCCO1` [Example 62, 8′-bromo-1′-[trans-4-(pyridin-2-yloxy)cyclohexyl]-4′H,6′H-spiro[1,3-dioxolane-2,5′ [1,2,4]triazolo[4,3-a][1]benzazepine]], 0.6 nM.

`CC(=O)NC1Cc2cc(Cl)ccc2-n2c(nnc2[C@H]2CC[C@H](Oc3ccccn3)CC2)C1` (stereo partly drawn) [Example 9, N-{8-chloro-1-[trans-4-(pyridin-2-yloxy)cyclohexyl]-5,6-dihydro-4H-[1,2,4]triazolo[4,3-a][1]benzazepin-5-yl}acetamide]: the Ki was determined as 31 nM. In the case of `c1ccc(O[C@H]2CC[C@H](c3nnc4n3-c3ccccc3CC3(C4)OCCO3)CC2)nc1` [Example 63, 1′-[trans-4-(pyridin-2-yloxy)cyclohexyl]-4′H,6′H-spiro[1,3-dioxolane-2,5′-[1,2,4]triazolo[4,3-a][1]benzazepine]] it was 13 nM; in that of `OC1Cc2cc(Cl)ccc2-n2c(nnc2[C@H]2CC[C@H](Oc3ccccn3)CC2)C1` (stereo partly drawn) [Example 55, 8-chloro-1-[trans-4-(pyridin-2-yloxy)cyclohexyl]-5,6-dihydro-4H-[1,2,4]triazolo[4,3-a][1]benzazepin-5-ol], 21 nM; in that of `O[C@@H]1Cc2cc(Cl)ccc2-n2c(nnc2[C@H]2CC[C@H](Oc3ccccn3)CC2)C1` [Example 57, (5R)-8-chloro-1-[trans-4-(pyridin-2-yloxy)cyclohexyl]-5,6-dihydro-4H-[1,2,4]triazolo[4,3-a][1]benzazepin-5-ol], 12 nM.
